Measurements reported in patent US20250145628A1, “PYRAZOLOPYRIMIDINES, COMPOSITIONS COMPRISING THEM AND USES THEREOF” (Novo Nordisk A/S, priority 2022, published 2025).
Values belong to the molecule of their own block, whether it stands above or below them.

Columns and labels:
[1] = target: T1, human CB1 receptor (Homo sapiens, UniProt P21554); assay: bioSensAll β-arrestin plasma membrane translocation BRET biosensor (+GRK2) assay (antagonism of CP-55,940); format: cell-based; conditions: HEK293 cells transfected with hCB1 and β-arrestin PM translocation biosensor (+GRK2), EC75 of CP-55,940 (100 nM), overnight incubation, read-out: CB1 wt βarr2 IC50
T1 construct: expressed in transfected cells; host or cells: HEK293
Method: (§1) Using polyethylenimine (PEI) transfection agent, HEK293 cells were transfected in suspension with the human CB1 or CB1b receptor and one of the following bioSensAll® assays: GAPL-Gi2, or β-arrestin plasma membrane (PM) translocation biosensor (+GRK2). Cells were directly seeded in 96-well plates immediately following transfection.
(§2) Cells were incubated with coelenterazine (luciferase substrate) and different test compounds prior to the measurement of BRET signals.
ii) The multimolecular β-arrestin membrane recruitment biosensors allow for real-time spatio-temporal monitoring of β-arrestin 1 and β-arrestin 2 following GPCR activation. Specifically, these β-arrestin sensors were designed to detect the recruitment of proteins to the plasma membrane (β-arrestin PM) with localization to compartment resulting in an increased BRET signal.
(§3) HEK293 cells were maintained in Dulbecco's Modified Eagle Medium (DMEM) (Wisent; cat #319-030-CL: without sodium pyruvate, with 4.5 g/L glucose, without L-glutamine) supplemented with 1% penicillin-streptomycin (Wisent; cat #450-201-EL) and 2 or 10% fetal bovine serum (Wisent cat #090150).
(§4) HEK293 cells were co-transfected with hCB1 or hCB1b and one of the above-listed bioSensAll® assays. For each transfection condition: • the total amount of transfected DNA was kept constant at 1 μg per mL of cell culture to be transfected; whenever necessary, salmon sperm DNA (Invitrogen, cat #15632011) was used as ‘carrier’ DNA to supplement plasmid DNA (i.e., biosensor and receptor); • the PEI (polyethylenimine 25 kDa linear, PolyScience, cat #23966) to DNA ratio (ug:ug) was fixed at 3:1.
(§5) Transfections were carried out as follows: • DNA and PEI were first diluted separately in 150 mM NaCl. The volume of the diluent in each tube corresponds to 5% of the cell culture volume to be transfected. • Once DNA and PEI were diluted, the PEI-containing solution was added to the DNA solution and the DNA/PEI mixture immediately vortexed for 5 seconds. • The DNA/PEI mixture was incubated for at least 20 minutes at room temperature to allow for the formation of DNA/PEI complexes. • During the incubation, HEK293 cells were detached, counted and re-suspended in culture medium (composition specified above). • At the end of the incubation period, the DNA/PEI mixture was added to the cells. • Cells were finally distributed in 96-well plates (White Opaque 96-well/Microplates, Greiner, cat #655083 or CulturPlate-96, White Opaque 96-well Microplate, PerkinElmer, cat #6005688) at a density of 30 000 cells per well.
(§6) At ˜48 hours post-transfection: • Using 450-Select TS Biotek plate washer, culture medium was aspirated and replaced with 100 μl of Hank's Balanced Salt Solution buffer (HBSS) (Wisent, cat #319-067CL: without red phenol; with sodium bicarbonate, with calcium and magnesium, with HEPES) per well. This process was performed a total of two times (i.e., 2 washes). • After the washing step, the HP D300 digital dispenser (Tecan) was used to inject increasing doses (12) of test compounds (ranging from 0-600 nM) to wells. Three to five minutes later, an EC75 of CP-55,940 (0.1 nM for GAPL-Gi2 assay; 100 nM for β-arrestin PM translocation biosensor (+GRK2)) was added to columns 2-12 of each 96-well plate.
(§7) BRET signals were determined by calculating the ratio of light emitted by GFP-acceptor (515 nm) over light emitted by luciferase-donor (400 nm). All BRET ratios were standardized using the equation below with pre-established BRET values for positive and negative controls. The standardized BRET ratio is referred to as universal BRET (uBRET).
(§8) Resulting dose-response curves were fitted using the four-parameter logistic non-linear regression model in GraphPad Prism 9.

[2] = target: T1, human CB1 receptor; assay: bioSensAll GAPL-Gi2 BRET biosensor assay (antagonism of CP-55,940); format: cell-based; conditions: HEK293 cells transfected with hCB1 and GAPL-Gi2 biosensor, EC75 of CP-55,940 (0.1 nM), overnight incubation, read-out: CB1 wt Gi2 IC50
Method: as §1, §2
i) GAPL sensors are used to monitor the activation of heterotrimeric G proteins at the plasma membrane upon receptor stimulation. Specifically, these multimolecular BRET sensors detect the plasma membrane recruitment of proteins that interact with active Ga subunits in a G protein family-selective manner. G protein activation following receptor stimulation generally leads to an increase in the BRET signal.
as §3, §4, §5, §6, §7, §8

T1 sequence (P21554 whole entry): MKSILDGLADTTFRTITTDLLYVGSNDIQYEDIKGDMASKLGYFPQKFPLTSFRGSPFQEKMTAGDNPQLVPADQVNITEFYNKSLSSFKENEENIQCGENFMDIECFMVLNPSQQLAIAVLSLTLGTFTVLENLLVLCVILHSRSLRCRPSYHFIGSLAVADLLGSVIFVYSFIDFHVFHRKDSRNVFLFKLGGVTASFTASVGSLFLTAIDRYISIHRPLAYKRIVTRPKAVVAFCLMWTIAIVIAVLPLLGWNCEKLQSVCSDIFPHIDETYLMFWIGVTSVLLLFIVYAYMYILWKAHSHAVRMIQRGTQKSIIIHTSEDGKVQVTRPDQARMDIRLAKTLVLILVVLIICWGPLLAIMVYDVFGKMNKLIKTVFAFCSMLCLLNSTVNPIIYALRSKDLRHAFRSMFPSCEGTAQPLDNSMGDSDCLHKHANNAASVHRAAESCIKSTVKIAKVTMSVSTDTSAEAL

SMILES: NC(=O)CC1CN(c2cc(N3CCC[C@H]3C(N)=O)nc3c(-c4ccc(Cl)cc4)c(-c4ccccc4Cl)nn23)C1 [Compound 35, (2S)-1-[7-[3-(2-amino-2-oxo-ethyl)azetidin-1-yl]-2-(2-chlorophenyl)-3-(4-chlorophenyl)pyrazolo[1,5-a]pyrimidin-5-yl]pyrrolidine-2-carboxamide]
IC50 [1]: > 10000 nM
IC50 [2]: 158 nM

SMILES: CCNC(=O)CN(C)c1cc(N2CC[C@H](CC(N)=O)C2)n2nc(-c3ccccc3Cl)c(-c3ccc(Cl)cc3)c2n1 [Compound 36, 2-[(3R)-1-[2-(2-chlorophenyl)-3-(4-chlorophenyl)-5-[[2-(ethylamino)-2-oxo-ethyl]-methyl-amino]pyrazolo[1,5-a]pyrimidin-7-yl]pyrrolidin-3-yl]acetamide]
IC50 [1]: 325 nM
IC50 [2]: 150 nM

SMILES: CC1(C(N)=O)CCN(c2cc(N3CCC[C@H]3C(N)=O)nc3c(-c4ccc(Cl)cc4)c(-c4ccccc4Cl)nn23)CC1 [Compound 37, 1-[5-[(2S)-2-carbamoylpyrrolidin-1-yl]-2-(2-chlorophenyl)-3-(4-chlorophenyl)pyrazolo[1,5-a]pyrimidin-7-yl]-4-methyl-piperidine-4-carboxamide]
IC50 [1]: 35.3 nM
IC50 [2]: 5.91 nM

SMILES: CNC(=O)CCN(C)c1cc(N2CC(CC(N)=O)C2)n2nc(-c3ccccc3Cl)c(-c3ccc(Cl)cc3)c2n1 [Compound 39, 3-[[7-[3-(2-amino-2-oxo-ethyl)azetidin-1-yl]-2-(2-chlorophenyl)-3-(4-chlorophenyl)pyrazolo[1,5-a]pyrimidin-5-yl]-methyl-amino]-N-methyl-propanamide]
IC50 [1]: 107 nM
IC50 [2]: 34.4 nM

SMILES: CN(CP(C)(C)=O)c1cc(N2CCC(C)(C(N)=O)CC2)n2nc(-c3ccccc3Cl)c(-c3ccc(Cl)cc3)c2n1 [Compound 40, 1-[2-(2-chlorophenyl)-3-(4-chlorophenyl)-5-[dimethylphosphorylmethyl (methyl)amino]pyrazolo[1,5-a]pyrimidin-7-yl]-4-methyl-piperidine-4-carboxamide]
IC50 [1]: 112 nM
IC50 [2]: 17.3 nM

SMILES: CNC(=O)CCN(C)c1cc(N2CCC[C@@H](C(N)=O)C2)n2nc(-c3ccccc3Cl)c(-c3ccc(Cl)cc3)c2n1 [Compound 41, (3R)-1-[2-(2-chlorophenyl)-3-(4-chlorophenyl)-5-[methyl-[3-(methylamino)-3-oxo-propyl]amino]pyrazolo[1,5-a]pyrimidin-7-yl]piperidine-3-carboxamide]
IC50 [1]: 161 nM
IC50 [2]: 93 nM

SMILES: CCNC(=O)CN(C)c1cc(N2CCC(C)(C(N)=O)CC2)n2nc(-c3ccccc3Cl)c(-c3ccc(Cl)cc3)c2n1 [Compound 46, 1-[2-(2-chlorophenyl)-3-(4-chlorophenyl)-5-[[2-(ethylamino)-2-oxo-ethyl]-methyl-amino]pyrazolo[1,5-a]pyrimidin-7-yl]-4-methyl-piperidine-4-carboxamide]
IC50 [1]: 29.9 nM
IC50 [2]: 3.79 nM

SMILES: CCNC(=O)CNc1cc(N2CCC(C)(C(N)=O)CC2)n2nc(-c3ccccc3Cl)c(-c3ccc(Cl)cc3)c2n1 [Compound 47, 1-[2-(2-chlorophenyl)-3-(4-chlorophenyl)-5-[[2-(ethylamino)-2-oxo-ethyl]amino]pyrazolo[1,5-a]pyrimidin-7-yl]-4-methyl-piperidine-4-carboxamide]
IC50 [1]: 131 nM
IC50 [2]: 33.7 nM

Stronger by IC50 [1], values ahead:

IC50 [1]: 25.4 nM
IC50 [2]: 9.13 nM
SMILES: CC(C)(O)CNc1cc(N2CCC(C)(C(N)=O)CC2)n2nc(-c3ccccc3Cl)c(-c3ccc(Cl)cc3)c2n1 [Compound 49, 1-[2-(2-chlorophenyl)-3-(4-chlorophenyl)-5-[(2-hydroxy-2-methyl-propyl)amino]pyrazolo[1,5-a]pyrimidin-7-yl]-4-methyl-piperidine-4-carboxamide]

IC50 [1]: 19.4 nM
IC50 [2]: 3.89 nM
SMILES: CCNC(=O)CN(C)c1cc(N2CCC(OCC)(C(N)=O)CC2)n2nc(-c3ccccc3Cl)c(-c3ccc(Cl)cc3)c2n1 [Compound 48, 1-[2-(2-chlorophenyl)-3-(4-chlorophenyl)-5-[[2-(ethylamino)-2-oxo-ethyl]-methyl-amino]pyrazolo[1,5-a]pyrimidin-7-yl]-4-ethoxy-piperidine-4-carboxamide]

IC50 [1]: 14.3 nM
IC50 [2]: 3.9 nM
SMILES: CCOC1(C(N)=O)CCN(c2cc(N(C)CC(C)(C)O)nc3c(-c4ccc(Cl)cc4)c(-c4ccccc4Cl)nn23)CC1 [Compound 44, 1-[2-(2-chlorophenyl)-3-(4-chlorophenyl)-5-[(2-hydroxy-2-methyl-propyl)-methyl-amino]pyrazolo[1,5-a]pyrimidin-7-yl]-4-ethoxy-piperidine-4-carboxamide]

IC50 [1]: 10.9 nM
IC50 [2]: 2.48 nM
SMILES: CNC(=O)CCN(C)c1cc(N2CCC(C)(C(N)=O)CC2)n2nc(-c3ccccc3Cl)c(-c3ccc(Cl)cc3)c2n1 [Compound 38, 1-[2-(2-chlorophenyl)-3-(4-chlorophenyl)-5-[methyl-[3-(methylamino)-3-oxo-propyl]amino]pyrazolo[1,5-a]pyrimidin-7-yl]-4-methyl-piperidine-4-carboxamide]

IC50 [1]: 8.61 nM
IC50 [2]: 3.97 nM
SMILES: CC(C)(O)COc1cc(-c2ccc(C(F)(F)F)nc2)n2nc(-c3ccccc3Cl)c(-c3ccc(Cl)cc3)c2n1 [Compound 45, 1-[2-(2-chlorophenyl)-3-(4-chlorophenyl)-7-[6-(trifluoromethyl)-3-pyridyl]pyrazolo[1,5-a]pyrimidin-5-yl]oxy-2-methyl-propan-2-ol]

IC50 [1]: 4.79 nM
IC50 [2]: 2.21 nM
SMILES: COc1ccc(-c2cc(N3CCC[C@H]3CO)nc3c(-c4ccc(Cl)cc4)c(-c4ccc(C#N)cc4)nn23)cc1 [Compound 50, 4-[3-(4-chlorophenyl)-5-[(2S)-2-(hydroxymethyl)pyrrolidin-1-yl]-7-(4-methoxyphenyl)pyrazolo[1,5-a]pyrimidin-2-yl]benzonitrile]

IC50 [1]: 4.73 nM
IC50 [2]: 1.67 nM
SMILES: CCOC1(C(N)=O)CCN(c2cc(OCC(C)(C)O)nc3c(-c4ccc(Cl)cc4)c(-c4ccccc4Cl)nn23)CC1 [Compound 42, 1-[2-(2-chlorophenyl)-3-(4-chlorophenyl)-5-(2-hydroxy-2-methyl-propoxy)pyrazolo[1,5-a]pyrimidin-7-yl]-4-ethoxy-piperidine-4-carboxamide]

IC50 [1]: 2.75 nM
IC50 [2]: 0.97 nM
SMILES: CCOC1(C(N)=O)CCN(c2cc(N(C)CCO)nc3c(-c4ccc(Cl)cc4)c(-c4ccccc4Cl)nn23)CC1 [Compound 43, 1-[2-(2-chlorophenyl)-3-(4-chlorophenyl)-5-[2-hydroxyethyl(methyl)amino]pyrazolo[1,5-a]pyrimidin-7-yl]-4-ethoxy-piperidine-4-carboxamide]

IC50 [1]: 2.56 nM
IC50 [2]: 1.47 nM
SMILES: COC1(C)CN(c2cc(OCC(C)(C)O)nc3c(-c4ccc(Cl)cc4)c(-c4ccc(C#N)nc4)nn23)C1 [Compound 52, 5-[3-(4-chlorophenyl)-5-(2-hydroxy-2-methyl-propoxy)-7-(3-methoxy-3-methyl-azetidin-1-yl)pyrazolo[1,5-a]pyrimidin-2-yl]pyridine-2-carbonitrile]

IC50 [1]: 1.73 nM
IC50 [2]: 0.95 nM
SMILES: CC(C)(O)COc1cc(N2CC(C)(C#N)C2)n2nc(-c3ccc(C#N)nc3)c(-c3ccc(Cl)cc3)c2n1 [Compound 51, 5-[3-(4-chlorophenyl)-7-(3-cyano-3-methyl-azetidin-1-yl)-5-(2-hydroxy-2-methyl-propoxy)pyrazolo[1,5-a]pyrimidin-2-yl]pyridine-2-carbonitrile]
